# From US20220119354A1, “DIAMINO-SUBSTITUTED PYRIDINES AND PYRIMIDINES AS HERBICIDES” (FMC Corporation, priority 2019, published 2022)
# How the values were obtained:
# Assay type in all cases: in vivo
# [1] = system: blackgrass (Alopecurus myosuroides); assay: Test A postemergence, blackgrass; conditions: 0 to 100 scale
# In short: (§1)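 Using a solvent/surfactant formulation, test chemicals were sprayed onto freshly seeded soil or onto 2–10 cm seedlings at the one- to two-leaf stage. Visual injury ratings on a 0–100 scale were made about 10 d later in the greenhouse.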
# [2] = system: ducksalad (Heteranthera limosa); assay: Test B flooded paddy test, ducksalad; conditions: Flood, 250 g ai/ha, applied to paddy water, 2-leaf stage, visual evaluation after 13 to 15 d
# In short: (§2)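 Pots flooded to 3 cm above the soil when treated, with test compound added straight to the water and the flood maintained. Treated plants were at the 2-leaf stage and stayed 13–15 d in greenhouse. Response versus untreated controls scored visually from 0 (no effect) to 100 (complete control).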
# [3] = system: barnyardgrass (Echinochloa crus-galli); assay: Test A preemergence, barnyardgrass; conditions: 0 to 100 scale; for Barnyardgrass plant response rating: 0 is no effect, 100 is complete control
# In short: as §1
# [4] = system: pigweed (Amaranthus retroflexus); assay: Test A preemergence, pigweed; conditions: 0 to 100 scale; for Pigweed plant response rating: 0 is no effect, 100 is complete control
# In short: as §1
# [5] = system: barnyardgrass (Echinochloa crus-galli); assay: Test A postemergence, barnyardgrass; conditions: 0 to 100 scale
# In short: as §1
# [6] = system: ryegrass, Italian (Lolium multiflorum); assay: Test A preemergence, Italian ryegrass; conditions: 0 to 100 scale; for Ryegrass, Italian plant response rating: 0 is no effect, 100 is complete control
# In short: as §1
# [7] = system: wheat (Triticum aestivum); assay: Test A postemergence, wheat; conditions: 0 to 100 scale
# In short: as §1
# [8] = system: ragweed (common ragweed, Ambrosia elatior); assay: Test A preemergence, ragweed; conditions: 0 to 100 scale; for Ragweed plant response rating: 0 is no effect, 100 is complete control
# In short: as §1
# rice (Oryza sativa) = assay: Test B flooded paddy test, rice; conditions: Flood, 250 g ai/ha, applied to paddy water, 2-leaf stage, visual evaluation after 13 to 15 d
# In short: as §2
# [9] = system: foxtail, giant (Setaria faberii); assay: Test A postemergence, giant foxtail; conditions: 0 to 100 scale
# In short: as §1
# corn (Zea mays) = assay: Test A postemergence, corn; conditions: 0 to 100 scale
# In short: as §1
# kochia (Kochia scoparia) [10] = assay: Test A postemergence, kochia; conditions: 0 to 100 scale
# In short: as §1
# kochia (Kochia scoparia) [11] = assay: Test A preemergence, kochia; conditions: 0 to 100 scale; for Kochia plant response rating: 0 is no effect, 100 is complete control
# In short: as §1
# [12] = system: sedge, umbrella (small-flower umbrella sedge, Cyperus difformis); assay: Test B flooded paddy test, umbrella sedge; conditions: Flood, 250 g ai/ha, applied to paddy water, 2-leaf stage, visual evaluation after 13 to 15 d
# In short: as §2
# [13] = system: pigweed (Amaranthus retroflexus); assay: Test A postemergence, pigweed; conditions: 0 to 100 scale
# In short: as §1
# [14] = system: foxtail, giant (Setaria faberii); assay: Test A preemergence, giant foxtail; conditions: 0 to 100 scale; for Foxtail, Giant plant response rating: 0 is no effect, 100 is complete control
# In short: as §1
# [15] = system: galium (catchweed bedstraw, Galium aparine); assay: Test A postemergence, galium; conditions: 0 to 100 scale
# In short: as §1
# [16] = system: ryegrass, Italian (Lolium multiflorum); assay: Test A postemergence, Italian ryegrass; conditions: 0 to 100 scale
# In short: as §1
# [17] = system: ragweed (common ragweed, Ambrosia elatior); assay: Test A postemergence, ragweed; conditions: 0 to 100 scale
# In short: as §1
# [18] = system: barnyardgrass (Echinochloa crus-galli); assay: Test B flooded paddy test, barnyardgrass; conditions: Flood, 250 g ai/ha, applied to paddy water, 2-leaf stage, visual evaluation after 13 to 15 d
# In short: as §2
# [19] = 125 g ai/ha, 0 no effect, 100 complete control
# [20] = 500 g ai/ha, 0 no effect, 100 complete control
compound,measurement,setting,value
C[C@@H](Nc1ncc(C(F)(F)F)c(N)n1)c1cc2cc(F)ccc2o1 [Compound 9],"Plant response rating, Blackgrass",[1]; 125 g ai/ha,0
same,"Plant response rating, Blackgrass",[1]; 500 g ai/ha,30
same,"Plant response rating, Ducksalad (0 to 100 scale, 0 is no effect, 100 is complete control)",[2],0
same,"Plant response rating, Barnyardgrass",[3]; 125 g ai/ha,80
same,"Plant response rating, Barnyardgrass",[3]; 500 g ai/ha,80
same,"Plant response rating, Pigweed",[4]; 125 g ai/ha,100
same,"Plant response rating, Pigweed",[4]; 500 g ai/ha,100
same,"Plant response rating, Barnyardgrass",[5]; 125 g ai/ha,10
same,"Plant response rating, Barnyardgrass",[5]; 500 g ai/ha,70
same,"Plant response rating, Ryegrass, Italian",[6]; 125 g ai/ha,0
same,"Plant response rating, Ryegrass, Italian",[6]; 500 g ai/ha,50
same,"Plant response rating, Wheat",[7]; 125 g ai/ha,0
same,"Plant response rating, Wheat",[7]; 500 g ai/ha,0
same,"Plant response rating, Ragweed",[8]; 125 g ai/ha,0
same,"Plant response rating, Ragweed",[8]; 500 g ai/ha,90
same,"Plant response rating, Rice (0 to 100 scale, 0 is no effect, 100 is complete control)",rice (Oryza sativa),0
same,"Plant response rating, Foxtail, Giant",[9]; 125 g ai/ha,0
same,"Plant response rating, Foxtail, Giant",[9]; 500 g ai/ha,90
same,"Plant response rating, Corn",corn (Zea mays); 125 g ai/ha,0
same,"Plant response rating, Corn",corn (Zea mays); 500 g ai/ha,20
same,"Plant response rating, Kochia",kochia (Kochia scoparia) [10]; 125 g ai/ha,80
same,"Plant response rating, Kochia",kochia (Kochia scoparia) [10]; 500 g ai/ha,90
same,"Plant response rating, Kochia",kochia (Kochia scoparia) [11]; 125 g ai/ha,60
same,"Plant response rating, Kochia",kochia (Kochia scoparia) [11]; 500 g ai/ha,70
same,"Plant response rating, Sedge, Umbrella (0 to 100 scale, 0 is no effect, 100 is complete control)",[12],0
same,"Plant response rating, Pigweed",[13]; 125 g ai/ha,90
same,"Plant response rating, Pigweed",[13]; 500 g ai/ha,90
same,"Plant response rating, Foxtail, Giant",[14]; 125 g ai/ha,40
same,"Plant response rating, Foxtail, Giant",[14]; 500 g ai/ha,90
same,"Plant response rating, Galium",[15]; 125 g ai/ha,80
same,"Plant response rating, Galium",[15]; 500 g ai/ha,80
same,"Plant response rating, Ryegrass, Italian",[16]; 125 g ai/ha,0
same,"Plant response rating, Ryegrass, Italian",[16]; 500 g ai/ha,30
same,"Plant response rating, Ragweed",[17]; 125 g ai/ha,60
same,"Plant response rating, Ragweed",[17]; 500 g ai/ha,80
same,"Plant response rating, Barnyardgrass (0 to 100 scale, 0 is no effect, 100 is complete control)",[18],0
C[C@@H](Nc1ncc(C#N)c(N)n1)c1cc2ccccc2s1 [Compound 104],"Plant response rating, Blackgrass",[1]; [19],0
same,"Plant response rating, Blackgrass",[1]; [20],20
same,"Plant response rating, Ducksalad (0 to 100 scale, 0 is no effect, 100 is complete control)",[2],0
same,Barnyardgrass plant response rating,[3]; 125 g ai/ha,0
same,Barnyardgrass plant response rating,[3]; 500 g ai/ha,0
same,Pigweed plant response rating,[4]; 125 g ai/ha,50
same,Pigweed plant response rating,[4]; 500 g ai/ha,80
same,"Plant response rating, Barnyardgrass",[5]; [19],0
same,"Plant response rating, Barnyardgrass",[5]; [20],20
same,"Ryegrass, Italian plant response rating",[6]; 125 g ai/ha,30
same,"Ryegrass, Italian plant response rating",[6]; 500 g ai/ha,60
same,"Plant response rating, Wheat",[7]; [19],0
same,"Plant response rating, Wheat",[7]; [20],0
same,Ragweed plant response rating,[8]; 125 g ai/ha,60
same,Ragweed plant response rating,[8]; 500 g ai/ha,100
same,"Plant response rating, Rice (0 to 100 scale, 0 is no effect, 100 is complete control)",rice (Oryza sativa),0
same,"Plant response rating, Foxtail, Giant",[9]; [19],0
same,"Plant response rating, Foxtail, Giant",[9]; [20],20
same,"Plant response rating, Corn",corn (Zea mays); [19],0
same,"Plant response rating, Corn",corn (Zea mays); [20],0
same,"Plant response rating, Kochia",kochia (Kochia scoparia) [10]; [19],10
same,"Plant response rating, Kochia",kochia (Kochia scoparia) [10]; [20],60
same,Kochia plant response rating,kochia (Kochia scoparia) [11]; 125 g ai/ha,30
same,Kochia plant response rating,kochia (Kochia scoparia) [11]; 500 g ai/ha,90
same,"Plant response rating, Sedge, Umbrella (0 to 100 scale, 0 is no effect, 100 is complete control)",[12],0
same,"Plant response rating, Pigweed",[13]; [19],80
same,"Plant response rating, Pigweed",[13]; [20],100
same,"Foxtail, Giant plant response rating",[14]; 125 g ai/ha,20
same,"Foxtail, Giant plant response rating",[14]; 500 g ai/ha,60
same,"Plant response rating, Galium",[15]; [19],40
same,"Plant response rating, Galium",[15]; [20],80
same,"Plant response rating, Ryegrass, Italian",[16]; [19],0
same,"Plant response rating, Ryegrass, Italian",[16]; [20],70
same,"Plant response rating, Ragweed",[17]; [19],20
same,"Plant response rating, Ragweed",[17]; [20],80
same,"Plant response rating, Barnyardgrass (0 to 100 scale, 0 is no effect, 100 is complete control)",[18],0
CC(Nc1ncc(C(F)(F)F)c(N)n1)c1cc2ccc(F)c(F)c2s1 (stereo not drawn) [Compound 86],"Plant response rating, Blackgrass",[1]; [19],0
same,"Plant response rating, Blackgrass",[1]; [20],10
same,"Plant response rating, Ducksalad (0 to 100 scale, 0 is no effect, 100 is complete control)",[2],75
same,Barnyardgrass plant response rating,[3]; 125 g ai/ha,70
same,Barnyardgrass plant response rating,[3]; 500 g ai/ha,90
same,Pigweed plant response rating,[4]; 125 g ai/ha,100
same,Pigweed plant response rating,[4]; 500 g ai/ha,100
same,"Plant response rating, Barnyardgrass",[5]; [19],40
same,"Plant response rating, Barnyardgrass",[5]; [20],50
same,"Ryegrass, Italian plant response rating",[6]; 125 g ai/ha,20
same,"Ryegrass, Italian plant response rating",[6]; 500 g ai/ha,70
same,"Plant response rating, Wheat",[7]; [19],0
same,"Plant response rating, Wheat",[7]; [20],0
same,Ragweed plant response rating,[8]; 125 g ai/ha,100
same,Ragweed plant response rating,[8]; 500 g ai/ha,100
same,"Plant response rating, Rice (0 to 100 scale, 0 is no effect, 100 is complete control)",rice (Oryza sativa),0
same,"Plant response rating, Foxtail, Giant",[9]; [19],60
same,"Plant response rating, Foxtail, Giant",[9]; [20],60
same,"Plant response rating, Corn",corn (Zea mays); [19],0
same,"Plant response rating, Corn",corn (Zea mays); [20],0
same,"Plant response rating, Kochia",kochia (Kochia scoparia) [10]; [19],70
same,"Plant response rating, Kochia",kochia (Kochia scoparia) [10]; [20],90
same,Kochia plant response rating,kochia (Kochia scoparia) [11]; 125 g ai/ha,80
same,Kochia plant response rating,kochia (Kochia scoparia) [11]; 500 g ai/ha,100
same,"Plant response rating, Sedge, Umbrella (0 to 100 scale, 0 is no effect, 100 is complete control)",[12],98
same,"Plant response rating, Pigweed",[13]; [19],90
same,"Plant response rating, Pigweed",[13]; [20],100
same,"Foxtail, Giant plant response rating",[14]; 125 g ai/ha,70
same,"Foxtail, Giant plant response rating",[14]; 500 g ai/ha,100
same,"Plant response rating, Galium",[15]; [19],70
same,"Plant response rating, Galium",[15]; [20],70
same,"Plant response rating, Ryegrass, Italian",[16]; [19],0
same,"Plant response rating, Ryegrass, Italian",[16]; [20],50
same,"Plant response rating, Ragweed",[17]; [19],20
same,"Plant response rating, Ragweed",[17]; [20],80
same,"Plant response rating, Barnyardgrass (0 to 100 scale, 0 is no effect, 100 is complete control)",[18],60
